Data taken from ChEMBL document CHEMBL1154835, “Antimicrobial study of newly synthesized 6-substituted indolo[1,2-c]quinazolines” (2010).
Converted amounts (≈) assume the structure as drawn.

Columns and labels:
Staphylococcus aureus [1] = test: Antimicrobial activity against Staphylococcus aureus at 1000 ug after 24 hrs by cup plate method; assay type: functional; conditions: read-out: DIZ
Bacillus subtilis [2] = test: Antimicrobial activity against Bacillus subtilis at 1000 ug after 24 hrs by cup plate method; assay type: functional; conditions: read-out: DIZ
Streptococcus pyogenes [3] = test: Antimicrobial activity against Streptococcus pyogenes at 1000 ug after 24 hrs by cup plate method; assay type: functional; conditions: read-out: DIZ
Escherichia coli [4] = test: Antimicrobial activity against Escherichia coli at 1000 ug after 24 hrs by cup plate method; assay type: functional; conditions: read-out: DIZ
Salmonella enterica [5] = test: Antimicrobial activity against Salmonella Typhimurium at 1000 ug after 24 hrs by cup plate method; assay type: functional, Salmonella enterica subsp. enterica serovar Typhimurium; conditions: read-out: DIZ
Klebsiella pneumoniae [6] = test: Antimicrobial activity against Klebsiella pneumoniae at 1000 ug after 24 hrs by cup plate method; assay type: functional; conditions: read-out: DIZ
Aspergillus niger [7] = test: Antimicrobial activity against Aspergillus niger at 1000 ug after 72 hrs by cup plate method; assay type: functional; conditions: read-out: DIZ
Candida albicans [8] = test: Antimicrobial activity against Candida albicans at 1000 ug after 72 hrs by cup plate method; assay type: functional; conditions: read-out: DIZ
Trichoderma viride [9] = test: Antimicrobial activity against Trichoderma viride at 1000 ug after 72 hrs by cup plate method; assay type: functional; conditions: read-out: DIZ
Staphylococcus aureus [10] = test: Antimicrobial activity against Staphylococcus aureus after 24 hrs by liquid dilution method; assay type: functional
Bacillus subtilis [11] = test: Antimicrobial activity against Bacillus subtilis after 24 hrs by liquid dilution method; assay type: functional
Streptococcus pyogenes [12] = test: Antimicrobial activity against Streptococcus pyogenes after 24 hrs by liquid dilution method; assay type: functional
Salmonella enterica [13] = test: Antimicrobial activity against Salmonella Typhimurium after 24 hrs by liquid dilution method; assay type: functional, Salmonella enterica subsp. enterica serovar Typhimurium
Escherichia coli [14] = test: Antimicrobial activity against Escherichia coli after 24 hrs by liquid dilution method; assay type: functional
Klebsiella pneumoniae [15] = test: Antimicrobial activity against Klebsiella pneumoniae after 24 hrs by liquid dilution method; assay type: functional
Aspergillus niger [16] = test: Antimicrobial activity against Aspergillus niger after 24 hrs by liquid dilution method; assay type: functional
Candida albicans [17] = test: Antimicrobial activity against Candida albicans after 24 hrs by liquid dilution method; assay type: functional
Trichoderma viride [18] = test: Antimicrobial activity against Trichoderma viride after 24 hrs by liquid dilution method; assay type: functional

Compound | MIC (Staphylococcus aureus [10]) | MIC (Bacillus subtilis [11]) | MIC (Streptococcus pyogenes [12]) | MIC (Salmonella enterica [13]) | MIC (Escherichia coli [14]) | MIC (Klebsiella pneumoniae [15]) | MIC (Aspergillus niger [16]) | MIC (Candida albicans [17]) | MIC (Trichoderma viride [18]) | zone of inhibition at 1000 µg/disc (Staphylococcus aureus [1]) | zone of inhibition at 1000 µg/disc (Bacillus subtilis [2]) | zone of inhibition at 1000 µg/disc (Streptococcus pyogenes [3]) | zone of inhibition at 1000 µg/disc (Escherichia coli [4]) | zone of inhibition at 1000 µg/disc (Salmonella enterica [5]) | zone of inhibition at 1000 µg/disc (Klebsiella pneumoniae [6]) | zone of inhibition at 1000 µg/disc (Aspergillus niger [7]) | zone of inhibition at 1000 µg/disc (Candida albicans [8]) | zone of inhibition at 1000 µg/disc (Trichoderma viride [9])
c1ccc2c(c1)cc1c3ccccc3nc(-c3ccc(-c4nc5ccccc5c5cc6ccccc6n45)cc3)n21 |  |  |  |  |  |  |  |  |  | 25 mm | 14 mm | 18 mm | 16 mm | 11 mm | 13 mm | 12 mm | 21 mm | 9 mm
c1ccc2cc(-c3nc4ccccc4c4cc5ccccc5n34)c(-c3nc4ccccc4c4cc5ccccc5n34)cc2c1 | 5 µg/mL (≈ 8.92 µM) | 15 µg/mL (≈ 26.8 µM) | 15 µg/mL (≈ 26.8 µM) | 35 µg/mL (≈ 62.4 µM) | 35 µg/mL (≈ 62.4 µM) | 20 µg/mL (≈ 35.7 µM) | 35 µg/mL (≈ 62.4 µM) | 25 µg/mL (≈ 44.6 µM) | 30 µg/mL (≈ 53.5 µM) | 50 mm | 45 mm | 39 mm | 12 mm | 14 mm | 35 mm | 17 mm | 16 mm | 12 mm
CC(=O)N1CCN(c2ccc(OCC3COC(Cn4ccnc4)(c4ccc(Cl)cc4Cl)O3)cc2)CC1 (configuration not stated) [KETOCONAZOLE] |  |  |  |  |  |  | 15 µg/mL (≈ 28.2 µM) | 25 µg/mL (≈ 47 µM) | 20 µg/mL (≈ 37.6 µM) |  |  |  |  |  |  | 45 mm | 40 mm | 41 mm

Continued, in another order:

MIC (Staphylococcus aureus [10]) | MIC (Bacillus subtilis [11]) | MIC (Streptococcus pyogenes [12]) | MIC (Salmonella enterica [13]) | MIC (Escherichia coli [14]) | MIC (Klebsiella pneumoniae [15]) | MIC (Aspergillus niger [16]) | MIC (Candida albicans [17]) | MIC (Trichoderma viride [18]) | Compound | zone of inhibition at 1000 µg/disc (Staphylococcus aureus [1]) | zone of inhibition at 1000 µg/disc (Bacillus subtilis [2]) | zone of inhibition at 1000 µg/disc (Streptococcus pyogenes [3]) | zone of inhibition at 1000 µg/disc (Escherichia coli [4]) | zone of inhibition at 1000 µg/disc (Salmonella enterica [5]) | zone of inhibition at 1000 µg/disc (Klebsiella pneumoniae [6]) | zone of inhibition at 1000 µg/disc (Aspergillus niger [7]) | zone of inhibition at 1000 µg/disc (Candida albicans [8]) | zone of inhibition at 1000 µg/disc (Trichoderma viride [9])
5 µg/mL (≈ 9.79 µM) | 15 µg/mL (≈ 29.4 µM) | 15 µg/mL (≈ 29.4 µM) | 20 µg/mL (≈ 39.2 µM) | 10 µg/mL (≈ 19.6 µM) | 35 µg/mL (≈ 68.5 µM) | 30 µg/mL (≈ 58.8 µM) | 30 µg/mL (≈ 58.8 µM) | 25 µg/mL (≈ 49 µM) | c1cc(-c2nc3ccccc3c3cc4ccccc4n23)cc(-c2nc3ccccc3c3cc4ccccc4n23)c1 | 51 mm | 46 mm | 48 mm | 20 mm | 35 mm | 18 mm | 12 mm | 15 mm | 21 mm
5 µg/mL (≈ 13.8 µM) | 5 µg/mL (≈ 13.8 µM) | 10 µg/mL (≈ 27.5 µM) | 5 µg/mL (≈ 13.8 µM) | 5 µg/mL (≈ 13.8 µM) | 5 µg/mL (≈ 13.8 µM) | 10 µg/mL (≈ 27.5 µM) | 15 µg/mL (≈ 41.3 µM) | 10 µg/mL (≈ 27.5 µM) | COc1ccc2[nH]cc(-c3nc4ccccc4c4cc5ccccc5n34)c2c1 | 50 mm | 49 mm | 39 mm | 50 mm | 42 mm | 46 mm | 49 mm | 48 mm | 49 mm
2.5 µg/mL (≈ 7.13 µM) | 2.5 µg/mL (≈ 7.13 µM) | 5 µg/mL (≈ 14.3 µM) | 2.5 µg/mL (≈ 7.13 µM) | 2.5 µg/mL (≈ 7.13 µM) | 5 µg/mL (≈ 14.3 µM) | 2.5 µg/mL (≈ 7.13 µM) | 10 µg/mL (≈ 28.5 µM) | 2.5 µg/mL (≈ 7.13 µM) | c1ccc2c(c1)cc1c3ccccc3nc(-c3csc4ccccc34)n21 | 55 mm | 51 mm | 48 mm | 48 mm | 50 mm | 50 mm | 52 mm | 45 mm | 49 mm
